According to patent US20060263802A1 (priority 2003, published 2006):

Columns and labels:
Format in all cases: binding
[1] = system: human monoclonal antibody CRJA
[2] = system: human monoclonal antibody CR57
[3] = system: human monoclonal antibody CRJA; remark: listed apart in the source
[4] = system: human monoclonal antibody CRJB
[5] = system: human monoclonal antibody CRJB; remark: listed apart in the source
[6] = system: human monoclonal antibody CR57; remark: listed apart in the source

| Sequence | Binding of CRJA to linear peptide (PEPSCAN-ELISA signal) [1] | Binding of CR57 to linear peptide (PEPSCAN-ELISA signal) [2] | Binding of CRJA (10 μg/ml) to looped/cyclic peptide (PEPSCAN-ELISA) [3] | Binding of CRJB to linear peptide (PEPSCAN-ELISA signal) [4] | Binding of CRJB (10 μg/ml) to looped/cyclic peptide (PEPSCAN-ELISA) [5] | Binding of CR57 (10 μg/ml) to looped/cyclic peptide (PEPSCAN-ELISA) [6] | Binding of CRJA (10 μg/ml) to looped/cyclic peptide (PEPSCAN-ELISA signal) [3] | Binding of CRJB (10 μg/ml) to looped/cyclic peptide (PEPSCAN-ELISA signal) [5] | Binding of CR57 (10 μg/ml) to looped/cyclic peptide (PEPSCAN-ELISA signal) [6] | other results |
| --- | --- | --- | --- | --- | --- | --- | --- | --- | --- | --- |
| ACKLKLCGVLGLRLM | 79 | 148 | 71 | 117 | 92 | 111 |  |  |  | binding of antibody CR57 to linear peptide (PEPSCAN OD) [2]: bound; strength of binding of CR57 (OD value compared with the other peptides / twice the average value) [2]: lower than twice the average value |
| LVRKREECLDALESI | 107 | 86 | 101 | 130 | 82 | 105 |  |  |  |  |
| ADPSTVFKDGDEAED |  |  |  |  |  |  |  |  |  | Binding of human monoclonal antibody CRJA to linear peptide (PEPSCAN-ELISA signal) [1]: 101; Binding of human monoclonal antibody CR57 to linear peptide (PEPSCAN-ELISA signal) [2]: 147; Binding of CRJA to looped/cyclic peptide (PEPSCAN-ELISA signal) [3]: 101; Binding of human monoclonal antibody CRJB to linear peptide (PEPSCAN-ELISA signal) [4]: 152; Binding of CRJB to looped/cyclic peptide (PEPSCAN-ELISA signal) [5]: 72; Binding of CR57 to looped/cyclic peptide (PEPSCAN-ELISA signal) [6]: 118 |
| ASKGSETCGFVDERG | 106 | 97 | 120 | 108 | 94 | 96 |  |  |  |  |
| RKLVPGFGKAYTIFN | 48 | 47 | 44 | 115 | 79 | 52 |  |  |  |  |
| GFTCTGVVTEAENYT | 90 | 71 |  | 86 |  |  | 87 | 68 | 94 |  |
| GSETCGFVDERGLYK | 56 | 57 | 64 | 115 | 71 | 64 |  |  |  |  |
| SLKGACKLKLCGVLG | 99 | 200 | 106 | 111 | 79 | 129 |  |  |  | binding of antibody CR57 to linear peptide (PEPSCAN OD) [2]: bound |
| HHLSCPNNLVVEDEG | 72 | 56 |  | 76 |  |  | 96 | 58 | 66 |  |
| MTTKSVSFRRLSHLR | 74 | 59 | 79 | 116 | 8 | 68 |  |  |  |  |
| PDACRAAYNWKMAGD | 93 | 61 |  | 124 |  |  | 96 | 76 | 97 |  |
| IDIHHLSCPNNLVVE | 61 | 69 |  | 102 |  |  | 55 | 59 | 55 |  |
| IWMPENPRLGMSCDI | 87 | 98 |  | 110 |  |  | 152 | 156 | 329 | binding of antibody CR57 to looped/cyclic peptide (PEPSCAN OD) [6]: clearly bound |
| DFRSDEIEHLVVEEL | 86 | 99 | 93 | 103 | 58 | 127 |  |  |  |  |
